The values below are quoted from earlier work in patent US10946011B2 (Martin Pharmaceuticals Inc., priority 2018, dated 2021).

Consider `OCC(CO)(CO)NCCCNC(CO)(CO)CO` [BIS-Tris Propane], for which the PKa is on record as 6.80.
